Bounds are passed on as bounds.

Test [1] has as its target GST-tagged K-Ras mutant / His-tagged hSOS1 (Homo sapiens, UniProt P01116). The test is described as follows: HTRF assay, K-Ras mutant / SOS1 interaction. It is filed as binding. Particulars: compound nos. 401-703; read-out: IC50 against mutant Kras. The procedure, abridged: (§1)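 Inhibition of wildtype or mutant K-Ras binding to hSOS1 is measured by FRET between antibody-bound Eu donor and XL665 acceptor. Protein levels are matched to the IC50 range under study. The 665/620 nm signal after ≥10 min yields IC50.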
Background: TR-FRET usually uses a lanthanide donor and a delayed reading to cut background.

Test [2] has as its target T1, wildtype Kras / hSOS1 (Homo sapiens, UniProt P01116).
T1 construct: made in house; host or cells: E. coli BL21 (DE3)
Put plainly: HTRF assay, wildtype Kras / SOS1 interaction. It is filed as binding. The note with it: compound nos. 401-703; read-out: IC50 against wildtype Kras. An outline of the steps:
as §1

Sequence of GST-tagged K-Ras mutant / His-tagged hSOS1 (P01116 whole entry G12D, form open): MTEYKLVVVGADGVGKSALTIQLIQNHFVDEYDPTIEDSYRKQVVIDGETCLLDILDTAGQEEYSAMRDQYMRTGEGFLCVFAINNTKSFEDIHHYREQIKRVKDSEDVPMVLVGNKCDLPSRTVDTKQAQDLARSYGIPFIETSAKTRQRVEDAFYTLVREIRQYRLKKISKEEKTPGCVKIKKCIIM
T1 sequence (P01116 1-188 isoform P01116-2): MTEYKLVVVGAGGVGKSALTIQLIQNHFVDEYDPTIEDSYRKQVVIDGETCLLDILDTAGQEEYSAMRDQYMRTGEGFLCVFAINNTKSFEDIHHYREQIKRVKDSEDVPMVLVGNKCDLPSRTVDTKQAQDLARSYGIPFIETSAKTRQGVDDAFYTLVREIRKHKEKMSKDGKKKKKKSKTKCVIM

A word on the IC50: it is the point on the concentration scale where inhibition reaches its midpoint. As to `C#Cc1cccc2cc(O)cc(-c3ccc4c(N5CCNCC(F)(F)C5)nc(OC[C@@]56CCCN5C[C@H](F)C6)nc4c3F)c12` [Compound 609, 4-(4-(6,6-difluoro-1,4-diazepan-1-yl)-8-fluoro-2-(((2R,7aS)-2-fluorotetra-hydro-1H-pyrrolizin-7a(5H)-yl)methoxy)quin-azolin-7-yl)-5-ethynylnaph-thalen-2-ol], the IC50 in test [1] is less than 0.5 µM; in test [2], greater than 0.5 µM.
For `Cc1ccc2cn[nH]c2c1-c1c(Cl)cc2c(N3CC4CCC(C3)N4)nc(OC[C@@]34CCCN3C[C@H](F)C4)nc2c1F` [Compound 611, 4-(3,8-diazabicyclo[3.2.1]-octan-3-yl)-6-chloro-8-fluoro-2-(((2R,7aS)-2-fluorotetrahydro-1H-pyrrol-izin-7a(5H)-yl)methoxy)-7-(6-methyl-1H-indazol-7-yl)-quinazoline], in that order: greater than 0.5 µM and greater than 0.5 µM.
On the same counts, the results for `Nc1nc2c(-c3ccc4c(N5CC6CCC(C5)N6)nc(OC[C@@]56CCCN5C[C@H](F)C6)nc4c3F)ccc(F)c2s1` [Compound 612, 4-(4-(3,8-diazabicyclo-[3.2.1]octan-3-yl)-8-fluoro-2-(((2R,7aS)-2-fluorotetra-hydro-1H-pyrrolizin-7a(5H)-yl)methoxy)quinazolin-7-yl)-7-fluorobenzo[d]thiazol-2-amine] are greater than 0.5 µM and greater than 0.5 µM.
For `Oc1cc(-c2c(Cl)cc3c(N4CC5CCC(C4)N5)nc(OCC45CCCN4CCC5)nc3c2F)cc(C(F)(F)F)c1` [Compound 614, 3-(4-(3,8-diazabicyclo-[3.2.1]octan-3-yl)-6-chloro-8-fluoro-2-((tetrahydro-1H-pyrrolizin-7a(5H)-yl)meth-oxy)quinazolin-7-yl)-5-(trifluoromethyl)phenol], in that order: greater than 0.5 µM and greater than 0.5 µM.
Take `Nc1nc2c(-c3c(Cl)cc4c(N5CC6CCC(C5)N6)nc(OCC56CCCN5CCC6)nc4c3F)cc(Cl)cc2s1` [Compound 615, 4-(4-(3,8-diazabicyclo-[3.2.1]octan-3-yl)-6-chloro-8-fluoro-2-((tetrahydro-1H-pyrrolizin-7a(5H)-yl)meth-oxy)quinazolin-7-yl)-6-chlorobenzo[d]thiazol-2-amine]: the half-inhibitory concentration (IC50) in test [1] was less than 0.5 µM; in test [2] it was greater than 0.5 µM.
For `CC(C)CN1[C@@H]2CC[C@H]1CN(c1nc(OCC34CCCN3CCC4)nc3c(F)c(-c4ccc(F)c5sc(N)nc45)c(Cl)cc13)C2` [Compound 617, 4-(6-chloro-8-fluoro-4-((1R,5S)-8-isobutyl-3,8-diazabicyclo[3.2.1]octan-3-yl)-2-((tetrahydro-1H-pyrrolizin-7a(5H)-yl)meth-oxy)quinazolin-7-yl)-7-fluorobenzo[d]thiazol-2-amine], in that order: less than 0.5 µM and greater than 0.5 µM.
As for `Nc1cc2cccc(-c3c(Cl)cc4c(N5CC6CCC(C5)N6)nc(OCC56CCCN5CCC6)nc4c3F)c2cn1` [Compound 618, 8-(4-(3,8-diazabicyclo-[3.2.1]octan-3-yl)-6-chloro-8-fluoro-2-((tetrahydro-1H-pyrrolizin-7a(5H)-yl)meth-oxy)quinazolin-7-yl)iso-quinolin-3-amine], the IC50 in test [1] and in test [2] was greater than 0.5 µM in each case.
For the compound `Fc1c(-c2cccc3c2CCCC3)c(Cl)cc2c(N3CC4CCC(C3)N4)nc(OC[C@@]34CCCN3C[C@H](F)C4)nc12` [Compound 619, 4-(3,8-diazabicyclo[3.2.1]-octan-3-yl)-6-chloro-8-fluoro-2-(((2R,7aS)-2-fluorotetrahydro-1H-pyrrol-izin-7a(5H)-yl)methoxy)-7-(5,6,7,8-tetrahydronaph-thalen-1-yl)quinazoline], the IC50 in test [1] and in test [2] was greater than 0.5 µM in each case.
Turning to `Nc1nc2c(-c3c(Cl)cc4c(N5CCCNCC5)nc(OC[C@@]56CCCN5C[C@H](F)C6)nc4c3F)ccc(F)c2s1` [Compound 621, 4-(6-chloro-4-(1,4-diazepan-1-yl)-8-fluoro-2-(((2R,7aS)-2-fluorotetrahydro-1H-pyrrolizin-7a(5H)-yl)meth-oxy)quinazolin-7-yl)-7-fluorobenzo[d]thiazol-2-amine], the IC50 is less than 0.5 µM in test [1] and greater than 0.5 µM in test [2].
For `Nc1nc2c(-c3c(Cl)cc4c(N5CCC6CNCC6C5)nc(OC[C@@]56CCCN5C[C@H](F)C6)nc4c3F)ccc(F)c2s1` (stereo partly drawn) [Compound 623, 4-(6-chloro-8-fluoro-2-(((2R,7aS)-2-fluorotetra-hydro-1H-pyrrolizin-7a(5H)-yl)methoxy)-4-(octahydro-5H-pyrrolo[3,4-c]pyridin-5-yl)quinazolin-7-yl)-7-fluoro-benzo[d]thiazol-2-amine], in that order: less than 0.5 µM and greater than 0.5 µM.
On the same counts, the results for `Nc1cc(-c2c(Cl)cc3c(N4CC5CCC(C4)N5)nc(OCC45CCCN4CCC5)nc3c2F)ccc1F` [Compound 627, 5-(4-(3,8-diazabicyclo-[3.2.1]octan-3-yl)-6-chloro-8-fluoro-2-((tetrahydro-1H-pyrrolizin-7a(5H)-yl)meth-oxy)quinazolin-7-yl)-2-fluoroaniline] are greater than 0.5 µM and greater than 0.5 µM.
As for `Nc1nc2c(-c3c(Cl)cc4c(N5CCCCC56CNC6)nc(OC[C@@]56CCCN5C[C@H](F)C6)nc4c3F)ccc(F)c2s1` [Compound 629, 4-(6-chloro-8-fluoro-2-(((2R,7aS)-2-fluorotetra-hydro-1H-pyrrolizin-7a(5H)-yl)methoxy)-4-(2,5-diaza-spiro[3.5]nonan-5-yl)quin-azolin-7-yl)-7-fluorobenzo-[d]thiazol-2-amine], the IC50 in test [1] and in test [2] was greater than 0.5 µM throughout.
For the compound `Cc1ccc2[nH]nc(C#N)c2c1-c1c(Cl)cc2c(N3CC4CCC(C3)N4)nc(OC[C@@]34CCCN3C[C@H](F)C4)nc2c1F` [Compound 632, 4-(4-(3,8-diazabicyclo-[3.2.1]octan-3-yl)-6-chloro-8-fluoro-2-(((2R,7aS)-2-fluorotetrahydro-1H-pyrrol-izin-7a(5H)-yl)methoxy)-quin-azolin-7-yl)-5-methyl-1H-indazole-3-carbonitrile], the IC50 is less than 0.5 µM in test [1] and greater than 0.5 µM in test [2].
For `Nc1nc2c(-c3c(Cl)cc4c(N5CCNCC(F)(F)C5)nc(OCC56CCCN5CCC6)nc4c3F)c(F)ccc2s1` [Compound 633, 4-(6-chloro-4-(6,6-difluoro-1,4-diazepan-1-yl)-8-fluoro-2-((tetrahydro-1H-pyrrol-izin-7a(5H)-yl)methoxy)-quinazolin-7-yl)-5-fluoro-benzo[d]thiazol-2-amine], the concentration for half-maximal inhibition (IC50) in test [1] was less than 0.5 µM; in test [2], greater than 0.5 µM.
For `Nc1nc2c(-c3ccc4c(N5CC6CCC(C5)N6)nc(OC[C@@]56CCCN5C[C@H](F)C6)nc4c3F)cccc2o1` [Compound 634, 4-(4-(3,8-diazabicyclo-[3.2.1]octan-3-yl)-8-fluoro-2-(((2R,7aS)-2-fluorotetra-hydro-1H-pyrrolizin-7a(5H)-yl)methoxy)quinazolin-7-yl)benzo[d]oxazol-2-amine], in that order: greater than 0.5 µM and greater than 0.5 µM.
On the same counts, the results for `Nc1nc2c(-c3cc4ncnc(N5CC6CCC(C5)N6)c4cc3Cl)ccc(F)c2s1` [Compound 635, 4-(4-(3,8-diazabicyclo-[3.2.1]octan-3-yl)-6-chloro-quinazolin-7-yl)-7-fluoro-benzo[d]thiazol-2-amine] are greater than 0.5 µM and greater than 0.5 µM.
For `Nc1cc(-c2c(Cl)cc3c(N4CC5CCC(C4)N5)nc(OCC45CCCN4CCC5)nc3c2F)c2ccccc2n1` [Compound 636, 4-(4-(3,8-diazabicyclo-[3.2.1]octan-3-yl)-6-chloro-8-fluoro-2-((tetrahydro-1H-pyrrolizin-7a(5H)-yl)meth-oxy)quinazolin-7-yl)quin-olin-2-amine], in that order: greater than 0.5 µM and greater than 0.5 µM.
Take `Fc1c(-c2cccc3c2CCCS3)c(Cl)cc2c(N3CC4CCC(C3)N4)nc(OC[C@@]34CCCN3C[C@H](F)C4)nc12` [Compound 637, 4-(3,8-diazabicyclo[3.2.1]-octan-3-yl)-6-chloro-8-fluoro-2-(((2R,7aS)-2-fluoro-tetrahydro-1H-pyrrolizin-7a(5H)-yl)methoxy)-7-(thio-chroman-5-yl)quinazoline]: the IC50 in test [1] and in test [2] was greater than 0.5 µM throughout.
Take `N#Cc1c(N)sc2c(F)ccc(-c3c(Cl)cc4c(N5CC6CCC(C5)N6)nc(OC[C@@]56CCCN5C[C@H](F)C6)nc4c3F)c12` [Compound 638, 4-(4-(3,8-diazabicyclo-[3.2.1]octan-3-yl)-6-chloro-8-fluoro-2-(((2R,7aS)-2-fluorotetrahydro-1H-pyrrol-izin-7a(5H)-yl)methoxy)-quinazolin-7-yl)-2-amino-7-fluorobenzo[b]thiophene-3-carbonitrile]: the figures for the IC50 in test [1] and in test [2] were less than 0.5 µM and greater than 0.5 µM, respectively.
With `Nc1nc2c(-c3c(Cl)cc4c(N5CC6CNCC(C5)N6)nc(OC[C@@]56CCCN5C[C@H](F)C6)nc4c3F)ccc(F)c2s1` [Compound 639, 4-(4-(3,7,9-triazabicyclo-[3.3.1]nonan-3-yl)-6-chloro-8-fluoro-2-(((2R,7aS)-2-fluorotetrahydro-1H-pyrrol-izin-7a(5H)-yl)methoxy)-quinazolin-7-yl)-7-fluoro-benzo[d]thiazol-2-amine], the values for the IC50 in test [1] and in test [2] were less than 0.5 µM and greater than 0.5 µM, respectively.
On the same counts, the results for `CNCCCN1CCCN(c2nc(OCC34CCCN3CCC4)nc3c(F)c(-c4ccc(F)c5sc(N)nc45)c(Cl)cc23)CC1` [Compound 640, 4-(6-chloro-8-fluoro-4-(4-(3-(methylamino)propyl)-1,4-diazepan-1-yl)-2-((tetrahydro-1H-pyrrolizin-7a(5H)-yl)methoxy)quin-azolin-7-yl)-7-fluorobenzo-[d]thiazol-2-amine] are less than 0.5 µM and greater than 0.5 µM.

These data come from patent US20240254129A1, “HETEROCYCLIC COMPOUNDS AND USES THEREOF” (Kumquat Biosciences Inc., priority 2021, published 2024).
